Data from a melting point compilation (Tetko et al.).

Cc1cccc(C)c1NC(=O)c1ccc[nH]c1=O
melting point: 266 °C

CCOC(=O)CON=C(c1cc2ccccc2o1)C1CC(C)(c2ccccc2)C1 (centres undefined)
melting point: 155 to 156 °C

Nc1ccc(C=CC(=O)c2ccccc2)cc1
melting point: 151 °C

CCCCCCCCCCCCCCCCCCCCCCCCO
melting point: 75 to 77 °C

Nc1nc(-c2ccc(F)c(F)c2)cs1
melting point: 116 to 117 °C

Cc1ccc(S)cc1
melting point: 43 °C

CC(C)(C)C=C=C=C=CC(C)(C)C
melting point: 135 °C

O=[N+]([O-])c1ccc(CCc2ccc([N+](=O)[O-])cc2)cc1
melting point: 181 °C

Nc1ccc(Oc2ccc(N)cc2)cc1
melting point: 191 °C

O=C(Nc1ccccc1)Nc1nnc(C(F)(F)F)s1
melting point: 149 to 151 °C

NC(=O)CC(O)C(=O)O (centres undefined)
melting point: 148 °C

N#Cc1conc1N
melting point: 140 °C

Cc1nc(-c2ccccc2)sc1C=O
melting point: 111 to 113 °C

CC(=O)C1CC1
melting point: -68.3 °C

CC(C)[C@@H](N)CO
melting point: 32 to 36 °C

NNC(=O)COc1ccc(F)cc1
melting point: 125 °C

O=C(Cl)c1cnn(-c2ccccc2)c1C(F)(F)F
melting point: 40 to 41 °C

Cc1cccc(Nc2ccncc2S(=O)(=O)NC(=O)NC(C)C)c1
melting point: 163 °C

CC=C(CC)C(=O)NC(N)=O
melting point: 198 °C

S=c1cc[nH]c(=S)[nH]1
melting point: 279 to 281 °C

COc1ccc([N+](=O)[O-])cc1Cl
melting point: 94 to 96 °C

BrC(=C(\Br)c1ccccc1)/C(Br)=C(\Br)c1ccccc1
melting point: 236 °C

Nc1ccc(F)nc1
melting point: 91 °C

OCC1OC(OCC2OC(O)(CO)C(O)C2O)C(O)C(O)C1O (centres undefined)
melting point: 125 to 128 °C

CCCCCc1ccc(C(C)=NO)cc1
melting point: 68 °C

O=C(CBr)Nc1ccccc1Cl
melting point: 89 to 91 °C

CC(C)(C)OC(=O)NCc1nnc(S)n1C1CC1
melting point: 193 to 194 °C

N#Cc1c(N)oc(-c2ccccc2)c1-c1ccccc1
melting point: 205 to 208 °C

NC(=O)CNCCS(=O)(=O)O
melting point: 270 to 295 °C

O=C(O)c1cnn(-c2ccc([N+](=O)[O-])cc2)c1C(F)(F)F
melting point: 202 to 204 °C

Nc1ccc(Cl)nn1
melting point: 210 to 211 °C

COC1C(O)C(O)C(O)C(O)C1O (single isomer, unassigned; (-))
melting point: 190 to 198 °C

Cc1nc(-c2ccc(Cl)cc2)sc1C(=O)O
melting point: 251 °C

CCOC(=O)c1cc(-c2ccccc2)on1
melting point: 48 to 49.5 °C

COC(=O)c1cc(Br)c(C)c(Br)c1
melting point: 88 °C

Ic1cc(I)c(I)c(I)c1I
melting point: 172 °C

O=[N+]([O-])c1cccc(F)c1O
melting point: 92.5 °C

Clc1ccc(-c2csc(N3N=C(c4cnccn4)CC3c3ccc4c(c3)OCO4)n2)cc1 (centres undefined)
melting point: 187 °C

O=C(C1=NOC2C(=O)N(c3cccc([N+](=O)[O-])c3)C(=O)C12)c1cccc2ccccc12 (centres undefined)
melting point: 191 °C

COC(=O)C1CCC(C)(C(C)(C)O)OC1(C)C (centres undefined)
melting point: 139 °C

Cc1ccc(C=O)c(Br)c1
melting point: 35 °C

COc1ccc2occc2c1
melting point: 31 to 33 °C

C=C(CC(=O)OCC)C(=O)OCC
melting point: 58.5 °C

C=CCn1c(S)nnc1CNC(=O)OC(C)(C)C
melting point: 150 to 153 °C

Cc1ccc([N+](=O)[O-])c(C)n1
melting point: 32 to 38 °C

COc1ccc2c(c1)CCc1ccc3c(c1-2)c(=O)n(-c1ccccc1)n3C
melting point: 162 °C

COc1cc(CCl)c(OC)cc1CCl
melting point: 164 to 165 °C

O=C(O)CCSCCCSCCC(=O)O
melting point: 107 to 109 °C

O=C(O)Cc1coc2ccccc12
melting point: 90 to 93 °C

O=C(O)C(F)(F)C(F)(F)C(F)(F)C(F)(F)C(F)(C(F)(F)F)C(F)(F)F
melting point: 13 °C

CC12C=CC(=O)C=C1CCC1C2CCC2(C)C(O)CCC12 (centres undefined)
melting point: 165 °C

NCCOS(=O)(=O)O
melting point: 277 to 280 °C

C1CCCSCC1
melting point: 0.5 °C

NNC(=S)NCCN1CCOCC1
melting point: 166 °C

O=CNC(Nc1ccc(Cl)c(Cl)c1)C(Cl)(Cl)Cl (centres undefined)
melting point: 135 °C

Cc1cc(C(=O)O)cc(C)c1OCc1ccccc1
melting point: 159 °C

C#CC1(O)CCC2C3CCC4=CCCCC4C3C(=C)CC21CC (centres undefined)
melting point: 110 °C

Cc1cc(C)c(N)c(C)c1N
melting point: 90 °C

Clc1ccc(-c2cc(Cl)c(Cl)c(Cl)c2Cl)cc1
melting point: 98 °C

CCCCCCCCCCCCCCCCCCN=C=O
melting point: 20 °C

COC(=O)CCc1cccc(CCC(=O)OC)c1
melting point: 51 °C

C1CC2CCCC(C1)C2
melting point: 146 °C

O=S(=O)(O)c1ccc2ccccc2c1
melting point: 91 °C

CCOC(=O)c1cnc2nc(SC)nn2c1N
melting point: 211 to 213 °C

O=[N+]([O-])c1ccc(C=NNc2ccccc2)cc1
melting point: 166 °C

COC(=O)CSc1cc(C(F)(F)F)nc2ccccc12
melting point: 96 to 98 °C

CCC(=O)c1ccc2c(c1)N(CCCN(C)C)c1ccccc1S2
melting point: 69.5 °C

OCc1cccc(OCCN2CCOCC2)c1
melting point: 55 to 60 °C

Nc1ccc2nccnc2c1
melting point: 159 °C

CN1CCN(c2ccc(C(=O)O)cc2)CC1
melting point: 270 °C

Oc1ccc(Cl)cc1Cc1cc(Cl)ccc1O
melting point: 178 °C

CCOC(=O)C(C#N)=C(SCc1ccccc1)SCc1ccccc1
melting point: 82 °C

Cc1ccc(C(c2ccc(C)o2)c2ccccc2N=C=S)o1
melting point: 65 °C

CC(C=CC=C(C)C=CC12OC1(C)CC(O)CC2(C)C)=CC=CC=C(C)C=CC=C(C)C=CC12OC1(C)CC(O)CC2(C)C (centres undefined)
melting point: 208 °C

COc1cc(C[N+](=O)[O-])ccc1OCc1ccccc1
melting point: 153 °C

O=C(C(Cl)Cl)N(CCO)Cc1ccc(Oc2ccc([N+](=O)[O-])cc2)cc1
melting point: 136 °C

CN1C(=O)CN=C(c2ccccc2F)c2cc([N+](=O)[O-])ccc21
melting point: 166 °C

Cn1ccc2c(S(=O)(=O)Cl)cccc21
melting point: 94 to 98 °C

CC(C)C1=CC2=CCC3C(C)(C(=O)O)CCCC3(C)C2CC1 (centres undefined)
melting point: 174 °C

ClC(Cl)C(Cl)C(Cl)Cl
melting point: -10 °C

Cn1c(S)nnc1-c1cccs1
melting point: 153 to 156 °C

NC(=S)NCCCc1ccccc1
melting point: 111 °C

CCC(COCCOc1c(I)cc(I)c(NC(C)=O)c1I)C(=O)O (centres undefined)
melting point: 130 °C

O=C(O)c1cc(Cl)ccc1N=NC1SC(=S)NC1=O (centres undefined)
melting point: 210 to 212 °C

CCN(CC)CC(=O)OCC(=O)C1(O)CCC2C3CCC4=CC(=O)C=CC4(C)C3C(O)CC21C (centres undefined)
melting point: 176 °C

COc1ccc(-c2oc3c(C)c(OC)cc(OC)c3c(=O)c2C)cc1OC
melting point: 217 °C

c1ccc2c(c1)oc1ccccc12
melting point: 86.5 °C

N#CCc1csc2ccc(Cl)cc12
melting point: 134 °C

O=[N+]([O-])c1cc([N+](=O)[O-])c(C=Nc2ccccc2)cc1C=Nc1ccccc1
melting point: 165 °C

COC(=O)c1cc(Br)cc(C(=O)OC)c1
melting point: 89 to 91 °C

Nc1nc2ccccc2[nH]1
melting point: 230 °C

Cc1nc(/C(C#N)=C/c2ccc(O)cc2)sc1/N=N/c1ccc(Cl)cc1
melting point: 230 °C

NS(=O)(=O)c1cc2c(cc1Cl)NC(C1CC3C=CC1C3)NS2(=O)=O (centres undefined)
melting point: 234 °C

CC(=O)Oc1ccc(C#N)cc1
melting point: 57 °C

O=C(CCl)c1ccc(F)cc1
melting point: 48 °C

O=C(O)Cc1ccc(F)c(F)c1
melting point: 49 °C

Fc1ccc(I)cc1
melting point: -20 °C

CCOC(=O)CC[C@H](NC(=O)c1ccc(N)cc1)C(=O)OCC
melting point: 141 °C

CCNc1nc(Cl)nc(NCC(=O)OCC)n1
melting point: 228 °C

CCOC(=O)C(=CN(O)c1ccccc1)c1ccccc1
melting point: 75 °C

Cc1nc(-c2ccccc2)sc1S(=O)(=O)Cl
melting point: 76 to 78 °C

O=C1c2ccccc2C(=O)C1(Cl)c1ccccc1
melting point: 115 to 116 °C

CCOC(=O)N1COCc2c1ccc1cc3ccc(NC)c(CO)c3nc21
melting point: 146 °C

CS(=O)(=O)c1cc(C(F)(F)F)ccc1C(=O)c1cnoc1C1CC1
melting point: 140 °C

CC(O)(c1ccc(Cl)cc1)c1ccc(Cl)cc1
melting point: 70 °C

CC(C)(C(=O)c1cccnc1)c1cccnc1
melting point: 50.5 °C

O=C(O)c1cc(N(Cc2ccccc2O)Cc2cc(O)ccc2O)ccc1O
melting point: 205 to 215 °C

C[N+](C)(C)CC(=O)[O-]
melting point: 301 °C

CCOC(=O)C(=O)CC(=O)c1cccs1
melting point: 38 to 40 °C

O=C1OC(O)c2c(Cl)c(Cl)c(Cl)c(Cl)c21 (centres undefined)
melting point: 240 to 248 °C

O=C(O)Cc1ccsc1
melting point: 79 °C

c1cc(OCC2CO2)cc(OCC2CO2)c1 (centres undefined)
melting point: 42.5 °C

c1ccc(CN2CCc3c([nH]c4ccccc34)C2)cc1
melting point: 165 to 170 °C

Clc1ccc2ccccc2c1
melting point: 61 °C

Brc1ccc2c(c1)OCCOCCOCCOCCOCCO2
melting point: 79 to 83 °C

c1nnc(SCCSc2nnc[nH]2)[nH]1
melting point: 197 to 200 °C

O=C(Cl)c1ccc(Br)cc1F
melting point: 25 °C

Cc1nc(O)cc(O)n1
melting point: 360 °C

S=C=Nc1ccc(N=Nc2ccccc2)cc1
melting point: 97 °C

O=Cc1cc([N+](=O)[O-])cc([N+](=O)[O-])c1O
melting point: 72.5 °C

Nc1nsc(-c2ccccc2)n1
melting point: 136 to 138 °C

O=Cc1ccc(-c2ccc([N+](=O)[O-])cc2)o1
melting point: 204 to 208 °C

O=C(O)c1cccc(O)c1[N+](=O)[O-]
melting point: 179 °C

O=C(O)C(F)(F)C(F)(F)C(F)(F)C(F)(F)C(F)(F)C(F)(F)C(F)(F)C(F)(F)C(F)(F)F
melting point: 87.4 to 88.2 °C

C#CCCCCCCCC#C
melting point: -17 °C

CC(C)(C)OC(=O)N1CCN(Cc2cccc(C(=O)O)c2)CC1
melting point: 173 to 175 °C

Cc1ccc(-c2c(C#N)c(=O)n3c(sc4ccccc43)c2C(N)=O)cc1
melting point: 199 °C

CCOc1cccc(F)c1
melting point: -27.5 °C

O=COCC=Cc1ccccc1
melting point: 0 °C
